Several values for one entry are separate records, joined by “and”; a condition that tells them apart may be missing. Identical values can stand only once.
Columns and labels:
[1] = Intrinsic clearance in mouse hepatocytes; format: in vitro ADME
[2] = test system: SREBP; assay: SREBP-responsive; details: luciferase reporter assay, CHO-K1 cells
[3] = Parallel artificial membrane permeability assay; details: for passive permeability through artificial membrane (in words): PAMPA
[4] = test system: ob/ob mice; details: male ob/ob mice, oral in chow, 8 wk
[5] = test system: SREBP-responsive genes in DU145 cells; assay: Real-time RT-PCR of SREBP-responsive genes in DU145 cells; format: cell-based, human

## CCCc1cc(-c2nc(-c3ccc(C)cc3)cs2)ccn1 [Compound 1, fatostatin]
[1]
  metabolic stability (in words): low metabolic stability

## CCCc1cc(-c2nc(-c3ccccc3)cs2)ccn1 [Compound 5a]
[2]
  decrease in potency relative to fatostatin: fourfold

## Cc1ccc(-c2csc(-c3ccccc3)n2)cc1 [Compound 12]
[2]
  decrease in potency relative to fatostatin: 3.3 fold

## CCCc1cc(-c2ccc(-c3ccc(C)cc3)cc2)ccn1 [Compound 15]
[2]
  activity in reporter assay (in words): large loss of activity

## CCCc1cc(-c2nc(-c3ccc(NC(C)C)cc3)cs2)ccn1 [Compound 20, N-Isopropyl-4-(2-(2-propylpyridin-4-yl)thiazol-4-yl)aniline]
[3]
  passive permeability through artificial membrane (in words): moderate
[1]
  metabolic stability (in words): low metabolic stability

## CCCc1cc(-c2nc(-c3ccc(NS(C)(=O)=O)cc3)cs2)ccn1 [Compound 24, N-(4-(2-(2-Propylpyridin-4-yl)thiazol-4-yl)phenyl)methanesulfonamide]
[4]
  less weight than control mice: 8–9%
[3]
  passive permeability through artificial membrane (in words): high
[5]; RPL13A, B2M, GAPDH
  effect on transcription of three control genes unrelated to SREBP: no significant effect
[5]; real-time RT-PCR, all nine genes
  downregulation of transcription of nine SREBP-responsive genes: at least 25%
[1]
  metabolic stability (in words): moderately stable

## CC(=O)CC(c1ccccc1)c1c(O)c2ccccc2oc1=O (stereo not drawn) [Warfarin, reference compound]
[3]; Warfarin 10 μM, control for membrane integrity, run alongside each compound
  Reference PAMPA Papp: 5.34 10^−6 cm/sec and 5.58 10^−6 cm/sec

From publication PMC3136361 (Journal of medicinal chemistry, 2011)
